Laboratory results: US20170081698A1, “SURVIVAL ASSAYS FOR METAKARYOTIC STEM CELLS” (priority 2014, published 2017)
Entries after “also recorded” stand apart in the source; their conditions may differ.

Columns and labels:
HT-29 cells [1] = experiment: Survival assay counting large colonies of HT-29 cells plated as single cells in T-flasks, with replating of surviving colonies; type: cell-based, human; conditions: for nature of surviving colonies (metakaryotic cells, growth upon passaging): HT-29, appropriate concentrations and durations of exposure; for stem cell number, by fraction of treated cells giving large, growing immortal colonies: HT-29 and CAPAN-1 lines; for exposure period required to assure killing greater than 99% of metakaryotic stem cells: HT-29 or CAPAN-1 cell cultures, certain concentrations; for number of immortal colonies: HT-29 cultures; for treatment level above which large colonies did not contain metakaryotic cells and did not grow further upon replating (mortal colonies): HT-29, concentration x duration of exposure; for applicants' interpretation of selectivity (metakaryotic stem cells versus eukaryotic cells): HT-29 cell population; for sensitivity of eukaryotic cells relative to metakaryotes to killing: cultures of cells derived from human tumors
Text: Large colonies visible to the eye and containing approximately 250 or more cells are enumerated manually or by an electronic colony counter adjusted to recognize colonies of these sizes.
As a practical tactic, the total number of large colonies (>250 cells) are counted and the number appearing on […] to untreated plates identifies the treatment as having killed either or both colonies arising from eukaryotic non-stem cells or from metakaryotic stem cells.
The assay, in one embodiment, involved plating single cells from an exponentially growing HT-29 cell culture in plastic T-flasks and counting the large colonies apparent five weeks after plating. Untreated control flasks provided the total number of immortal colonies and larger mortal colonies.

HT-29 cells [2] = experiment: Microscopic cytology of bell shaped metakaryotic nuclei in treated HT-29 cells (Hoechst, DAPI, Feulgen staining); type: cell-based, human; conditions: for condensation of chromatin in bell shaped metakaryotic nuclei: HT-29 cultures; for aspect of bell shaped nuclei of metakaryotic colonies at the end of treatment: HT-29 colony assay flasks
Capan-1 cells = experiment: Microscopic cytology of bell shaped metakaryotic nuclei in treated Capan-1 cells; conditions: Capan-1, equal to or greater than 10 micromolar for about one or more weeks
[3] = HT-29, 10 micromolar for 24 hours beginning 24 hours after seeding

Structure (SMILES): COc1ccc(CCN(C)CCCC(C#N)(c2ccc(OC)c(OC)c2)C(C)C)cc1OC (stereo not drawn) [verapamil]
- nature of surviving colonies (metakaryotic cells, growth upon passaging) (HT-29 cells [1]): did not contain discernable metakaryotic cells nor were they capable of continued growth upon passaging
- stem cell number, by fraction of treated cells giving large, growing immortal colonies (HT-29 cells [1]): reduction of stem cell number
- exposure period required to assure killing greater than 99% of metakaryotic stem cells (HT-29 cells [1]): not less than six
- fluorescent structures in the cytoplasmic organelle of metakaryotic cells (dsDNA dyes Hoechst, DAPI) (HT-29 cells [2]; HT-29, about one or more weeks of treatment): novel large bar structure; also recorded: bright blue fluorescent bars, crosses and more complex figures are observed
- chromatin in bell shaped nuclei after Feulgen staining (HT-29 cells [2]; HT-29, e.g. 10 micromolar for about one or more weeks): condensed into rope like structures
- pyknotic bell shaped nuclei with condensed chromatin (HT-29 cells [2]; HT-29 and CAPAN-1 cell cultures): dead (pyknotic) bell shaped metakaryotic cell nuclei; also recorded: pyknotic structures with bell shaped nuclei displaying grossly condensed chromatin structures
- condensation of chromatin in bell shaped metakaryotic nuclei (HT-29 cells [2]): observed
- nuclei of metakaryotic stem cells (Capan-1 cells): pyknotic nuclei

Structure (SMILES): COc1ccc2cc([C@H](C)C(=O)O)ccc2c1 [naproxen]
- number of immortal colonies (HT-29 cells [1]): reduce the number of immortal colonies

Structure (SMILES): Cc1ccc(-c2cc(C(F)(F)F)nn2-c2ccc(S(N)(=O)=O)cc2)cc1 [Celecoxib]
- treatment level above which large colonies did not contain metakaryotic cells and did not grow further upon replating (mortal colonies) (HT-29 cells [1]): higher than 10 micromolar weeks
- reduction of the total number of large colonies (HT-29 cells [1]; HT-29, two weeks beginning one day after transfer, ~2 to ~32 micromolar): about 10%

Structure (SMILES): CC(C)Cc1ccc(C(C)C(=O)O)cc1 (stereo not drawn) [ibuprofen]
- number of immortal colonies (HT-29 cells [1]): reduce the number of immortal colonies
- condensation of chromatin in bell shaped metakaryotic nuclei (HT-29 cells [2]): do not induce the condensation of chromatin

Structure (SMILES): CC(=O)Nc1ccc(O)cc1 [acetaminophen]
- nature of surviving colonies (metakaryotic cells, growth upon passaging) (HT-29 cells [1]): did not contain discernable metakaryotic cells nor were they capable of continued growth upon passaging
- treatment level above which large colonies did not contain metakaryotic cells and did not grow further upon replating (mortal colonies) (HT-29 cells [1]): higher than 10 micromolar weeks
- reduction of the total number of large colonies (HT-29 cells [1]; HT-29, two weeks beginning one day after transfer, ~5 to ~25 micromolar): about 10%
- effect of higher concentrations on cells (HT-29 cells [1]; HT-29, two weeks, concentrations higher than the range of the figure): killed all cells
- stem cell number, by fraction of treated cells giving large, growing immortal colonies (HT-29 cells [1]): reduction of stem cell number
- applicants' interpretation of selectivity (metakaryotic stem cells versus eukaryotic cells) (HT-29 cells [1]): exterminated the metakaryotic stem cells but were not cytotoxic to the eukaryotic non-stem cells
- number of immortal colonies (HT-29 cells [1]): reduce the number of immortal colonies
- aspect of bell shaped nuclei of metakaryotic colonies at the end of treatment (HT-29 cells [2]): did not display recognizable deformed pyknotic aspects
- condensation of chromatin in bell shaped metakaryotic nuclei (HT-29 cells [2]): do not induce the condensation of chromatin

Structure (SMILES): O=c1[nH]c(=O)n([C@H]2C[C@H](O)[C@@H](CO)O2)cc1C(F)(F)F [trifluorothymidine]
- effect on eukaryotic cells (HT-29 cells [1]; [3]): kills nearly all eukaryotic cells
- effect on survival of metakaryotic cells (HT-29 cells [1]; [3]): no detectable effect
- nature of surviving large colonies (metakaryotic cells, growth upon replating) (HT-29 cells [1]; HT-29, 24 hour exposure, ~7 to 17 micromolar): immortal and displayed visible metakaryotic cells by the 64 cell colony forming stage; also recorded: contained metakaryotic cells and grew continuously upon replating; also recorded: contained metakaryotic cells upon microscopic inspection and demonstrated the ability to grow continuously upon passaging
- applicants' interpretation of selectivity (metakaryotic stem cells versus eukaryotic cells) (HT-29 cells [1]): exterminated the eukaryotic cells in the HT-29 cell population studied but was not toxic to the metakaryotic stem cells
- sensitivity of eukaryotic cells relative to metakaryotes to killing (HT-29 cells [1]): markedly more sensitive

Structure (SMILES): CN(C)C(=N)N=C(N)N [metformin]
- further growth of remaining colonies upon trypsinized transfer (HT-29 cells [1]; HT-29, 100, 200 and 400 micromolar, five weeks): do not demonstrate further growth
- nature of surviving colonies (metakaryotic cells, growth upon passaging) (HT-29 cells [1]): did not contain discernable metakaryotic cells nor were they capable of continued growth upon passaging
- treatment level above which large colonies did not contain metakaryotic cells and did not grow further upon replating (mortal colonies) (HT-29 cells [1]): > 200 micromolar weeks
- further decrease in total large colony count (HT-29 cells [1]; HT-29, treatment range ~200 to 2000 micromolar weeks): No further significant decrease
- reduction of the total number of large colonies (HT-29 cells [1]; HT-29, ~1000 cells per flask, treatment levels from zero to ~100 micromolar weeks): about 10%
- stem cell number, by fraction of treated cells giving large, growing immortal colonies (HT-29 cells [1]): reduction of stem cell number
- exposure period required to assure killing greater than 99% of metakaryotic stem cells (HT-29 cells [1]): not less than six
- nuclear chromatin condensation in metakaryotic versus eukaryotic cell nuclei (HT-29 cells [2]; 200-2000 micromolar-weeks): metakaryotic but not eukaryotic cell nuclei display nuclear chromatin condensation
- aspect of bell shaped nuclei of metakaryotic colonies at the end of treatment (HT-29 cells [2]): displayed recognizable deformed aspects

Structure (SMILES): C[C@H]1c2cccc(O)c2C(=O)C2=C(O)[C@]3(O)C(=O)C(C(N)=O)=C(O)[C@@H](N(C)C)[C@@H]3[C@@H](O)[C@@H]21 [doxycycline]
- treatment level above which large colonies did not contain metakaryotic cells and did not grow further upon replating (mortal colonies) (HT-29 cells [1]): higher than 4 micromolar weeks
- reduction of the total number of large colonies (HT-29 cells [1]; HT-29, two weeks beginning one day after transfer, zero to ~10 micromolar): about 8%

Structure (SMILES): COc1cc2c(c(OC)c1OC)-c1ccc(OC)c(=O)cc1[C@@H](NC(C)=O)CC2 [colchicine]
- sensitivity of eukaryotic cells relative to metakaryotes to killing (HT-29 cells [1]): markedly more sensitive

Structure (SMILES): CC[C@]1(O)C[C@@H]2CN(CCc3c([nH]c4ccccc34)[C@@](C(=O)OC)(c3cc4c(cc3OC)N(C)[C@H]3[C@@](O)(C(=O)OC)[C@H](OC(C)=O)[C@]5(CC)C=CCN6CC[C@]43[C@@H]65)C2)C1 [vinblastine]
- sensitivity of eukaryotic cells relative to metakaryotes to killing (HT-29 cells [1]): markedly more sensitive

Structure (SMILES): O=C(O)CCCc1ccc(N(CCCl)CCCl)cc1 [chlorambucil]
- surviving large colonies (HT-29 cells [1]; HT-29, ~3000 cells per flask, one day exposure, greater than ~10 micromolar): reduced the surviving large colonies monotonically to zero without displaying a plateau
- sensitivity of eukaryotic cells relative to metakaryotes to killing (HT-29 cells [1]): markedly more sensitive
